Experiments:
[1] = biological target: human M2 receptor (Homo sapiens (Human), UniProt P08172); assay: Radioligand (tritiated N-methylscopolamine) binding assay, M2; details: CHO cell membranes expressing human M2; 1.5 nM tritiated N-methylscopolamine; 90 min, 37° C.; read-out: Ki against M2 receptor (Table 21, M2)
Method: (§1) Binding affinity (Ki) of compounds was measured by inhibition of radioligand binding to membranes from CHO cells expressing human M1, M2, M3, M4 and M5 receptors. Membranes were prepared by nitrogen cavitation and differential centrifugation as previously described (Hoare et al., Mol. Pharmacol. 2003 March; 63(3): 751-65). The radioligand employed was tritiated N-methylscopolamine, used at a concentration of 1.5 nM. A dose-response of twelve concentrations of compound was used, ranging from 10 μM to […]. The assay buffer was 50 mM HEPES, 100 mM NaCl, 5 mM MgCl2, 1 mM ethylenediaminetetraacetic acid, pH-adjusted to pH 7.4. Membranes, radioligand and compound were incubated together for 90 minutes at 37° C., in a total volume of 150 μl in a 96-well plate. Receptor-bound radioligand was then collected by harvesting the assay over glass fiber filters pretreated with polyethylenimine to trap the cell membranes, using rapid vacuum filtration. Harvesting and radioactivity counting was conducted as previously described (see, e.g., Hoare et al., Mol. Pharmacol. 2003 63(3):751-65); Erratum at Mol. Pharmacol. 2005 July; 68(1): 260).

[2] = biological target: human M5 receptor (Homo sapiens (Human), UniProt P08912); assay: Radioligand (tritiated N-methylscopolamine) binding assay, M5; details: CHO cell membranes expressing human M5; 1.5 nM tritiated N-methylscopolamine; 90 min, 37° C.; read-out: Ki against M5 receptor (Table 21, M5)
Chain of human M5 receptor (P08912 whole entry): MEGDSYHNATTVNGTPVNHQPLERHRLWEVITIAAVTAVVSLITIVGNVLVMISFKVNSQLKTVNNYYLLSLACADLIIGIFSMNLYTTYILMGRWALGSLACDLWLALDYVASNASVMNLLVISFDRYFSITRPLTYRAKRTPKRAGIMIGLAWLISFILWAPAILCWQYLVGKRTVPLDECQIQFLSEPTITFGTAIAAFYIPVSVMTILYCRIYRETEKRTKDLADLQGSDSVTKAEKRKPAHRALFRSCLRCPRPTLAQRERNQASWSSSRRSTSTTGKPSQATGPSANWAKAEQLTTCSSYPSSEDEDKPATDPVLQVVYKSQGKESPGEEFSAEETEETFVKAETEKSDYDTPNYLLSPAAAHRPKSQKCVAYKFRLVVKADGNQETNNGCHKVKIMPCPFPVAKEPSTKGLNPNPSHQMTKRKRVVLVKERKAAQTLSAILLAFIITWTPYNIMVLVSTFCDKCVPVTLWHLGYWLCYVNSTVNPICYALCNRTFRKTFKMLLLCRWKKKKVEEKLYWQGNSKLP
Method: as §1

[3] = biological target: human M1 receptor (Homo sapiens (Human), UniProt P11229); assay: Radioligand (tritiated N-methylscopolamine) binding assay, M1; details: CHO cell membranes expressing human M1; 1.5 nM tritiated N-methylscopolamine; 90 min, 37° C.; read-out: Ki against M1 receptor (Table 21, M1)
Chain of human M1 receptor (P11229 whole entry): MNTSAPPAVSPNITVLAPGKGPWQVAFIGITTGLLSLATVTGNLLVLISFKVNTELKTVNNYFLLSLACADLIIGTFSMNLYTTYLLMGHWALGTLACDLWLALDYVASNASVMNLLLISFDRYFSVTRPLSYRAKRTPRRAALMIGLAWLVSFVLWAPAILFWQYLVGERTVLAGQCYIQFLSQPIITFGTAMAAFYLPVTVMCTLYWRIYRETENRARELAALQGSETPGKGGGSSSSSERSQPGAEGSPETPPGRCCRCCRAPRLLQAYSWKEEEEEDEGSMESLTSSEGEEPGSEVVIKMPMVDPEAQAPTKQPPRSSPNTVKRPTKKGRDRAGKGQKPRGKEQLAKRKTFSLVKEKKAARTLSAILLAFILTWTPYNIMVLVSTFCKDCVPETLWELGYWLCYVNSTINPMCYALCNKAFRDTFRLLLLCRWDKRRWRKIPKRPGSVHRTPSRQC
Method: as §1

[4] = biological target: human M4 receptor (Homo sapiens (Human), UniProt P08173); assay: Radioligand (tritiated N-methylscopolamine) binding assay, M4; details: Ki against the M4 receptor; membranes from CHO cells expressing human M4; tritiated N-methylscopolamine 1.5 nM; read-out: Ki
Chain of human M4 receptor (P08173 whole entry): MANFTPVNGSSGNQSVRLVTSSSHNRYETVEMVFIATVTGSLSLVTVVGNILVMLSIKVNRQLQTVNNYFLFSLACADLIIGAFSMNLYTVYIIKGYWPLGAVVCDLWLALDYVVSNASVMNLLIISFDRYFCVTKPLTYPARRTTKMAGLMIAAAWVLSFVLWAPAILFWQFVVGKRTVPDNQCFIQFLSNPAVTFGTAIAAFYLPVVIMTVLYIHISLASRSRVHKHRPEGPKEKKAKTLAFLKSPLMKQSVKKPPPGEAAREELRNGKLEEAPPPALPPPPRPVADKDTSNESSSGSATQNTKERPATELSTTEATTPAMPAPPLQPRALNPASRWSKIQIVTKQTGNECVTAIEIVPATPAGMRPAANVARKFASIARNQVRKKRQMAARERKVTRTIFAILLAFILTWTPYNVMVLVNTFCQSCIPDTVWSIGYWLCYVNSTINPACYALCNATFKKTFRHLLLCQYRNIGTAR
In short: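 Ki from displacement of 1.5 nM [3H]N-methylscopolamine on membranes of CHO cells expressing each human receptor. Twelve compound concentrations (10 μM to […]), 90 min at 37° C in 50 mM HEPES, 100 mM NaCl, 5 mM MgCl2, 1 mM EDTA, pH 7.4. Bound ligand was captured by PEI-treated glass-fiber filtration and counted.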

[5] = biological target: human M3 receptor (Homo sapiens (Human), UniProt P20309); assay: Radioligand (tritiated N-methylscopolamine) binding assay, M3; details: CHO cell membranes expressing human M3; 1.5 nM tritiated N-methylscopolamine; 90 min, 37° C.; read-out: Ki against M3 receptor (Table 21, M3)
Chain of human M3 receptor (P20309 whole entry): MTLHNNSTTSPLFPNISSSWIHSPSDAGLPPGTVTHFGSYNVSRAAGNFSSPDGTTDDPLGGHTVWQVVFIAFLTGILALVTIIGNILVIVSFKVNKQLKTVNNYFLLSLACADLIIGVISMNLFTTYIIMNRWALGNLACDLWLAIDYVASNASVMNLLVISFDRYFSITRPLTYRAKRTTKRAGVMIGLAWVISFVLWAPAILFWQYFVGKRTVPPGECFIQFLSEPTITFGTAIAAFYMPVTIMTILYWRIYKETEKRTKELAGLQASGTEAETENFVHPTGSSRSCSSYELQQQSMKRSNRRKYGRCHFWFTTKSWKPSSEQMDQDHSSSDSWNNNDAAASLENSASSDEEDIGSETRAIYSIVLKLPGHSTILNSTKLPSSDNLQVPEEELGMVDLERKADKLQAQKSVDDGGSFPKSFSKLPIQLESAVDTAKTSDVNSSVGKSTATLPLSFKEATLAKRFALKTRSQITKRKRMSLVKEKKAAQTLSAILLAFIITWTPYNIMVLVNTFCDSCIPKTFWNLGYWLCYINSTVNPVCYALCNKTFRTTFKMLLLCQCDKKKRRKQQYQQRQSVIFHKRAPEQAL
Method: as §1

Chain of human M2 receptor (P08172 whole entry): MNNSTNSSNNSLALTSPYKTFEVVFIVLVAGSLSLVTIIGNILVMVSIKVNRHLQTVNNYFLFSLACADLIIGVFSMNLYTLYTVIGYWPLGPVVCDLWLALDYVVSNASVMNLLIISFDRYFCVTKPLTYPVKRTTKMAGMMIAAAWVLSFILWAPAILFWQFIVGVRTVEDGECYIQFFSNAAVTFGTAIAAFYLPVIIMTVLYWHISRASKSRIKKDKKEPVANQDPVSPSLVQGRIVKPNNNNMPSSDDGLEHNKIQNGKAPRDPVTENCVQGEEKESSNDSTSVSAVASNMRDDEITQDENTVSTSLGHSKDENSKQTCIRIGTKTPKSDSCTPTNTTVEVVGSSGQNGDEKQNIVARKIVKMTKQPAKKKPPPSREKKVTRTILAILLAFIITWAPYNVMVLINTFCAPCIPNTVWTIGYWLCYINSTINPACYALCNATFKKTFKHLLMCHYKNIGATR

| Compound | Ki [1] [µM] | Ki [2] [µM] | Ki [3] [µM] | Ki [4] [µM] | Ki [5] [µM] |
| --- | --- | --- | --- | --- | --- |
| O=C(NCC(O)C1CCN(Cc2ccccc2)CC1)C1CCN(c2ccc(OC(F)(F)F)cc2)CC1 (stereo not shown) [9-71, N-[2-(1-benzylpiperidin-4-yl)-2-hydroxyethyl]-1-[4-(trifluoromethoxy)phenyl]piperidine-4-carboxamide] | 0.1 to 1 | – | – | – | – |
| C[C@@H]1CN(c2ccc3c(c2)OC(F)(F)O3)CCN1C(=O)NCCC1CCN(Cc2ccccc2)CC1 [4-6, (2R)-N-[2-(1-benzylpiperidin-4-yl)ethyl]-4-(2,2-difluoro-2H-1,3-benzodioxol-5-yl)-2-methylpiperazine-1-carboxamide] | 0.01 to 0.1 | > 1 | 0.1 to 1 | < 0.01 | – |
| C[C@@H]1CN(c2cc(F)cc(F)c2)CCN1C(=O)NCCC1CCN(Cc2ccccc2)CC1 [4-72, (2R)-N-[2-(1-benzylpiperidin-4-yl)ethyl]-4-(3,5-difluorophenyl)-2-methylpiperazine-1-carboxamide] | 0.1 to 1 | > 1 | 0.1 to 1 | < 0.01 | – |
| C[C@@H]1CN(c2ncc(C(F)(F)F)c(N)n2)CCN1C(=O)NCCC1CCN(Cc2ccccc2)CC1 [21-16, (2R)-4-[4-amino-5-(trifluoromethyl)pyrimidin-2-yl]-2-methyl-N-(2-{1-[α,α-^2H-benzyl]piperidin-4-yl}ethyl)piperazine-1-carboxamide] | < 0.01 | 0.1 to 1 | – | < 0.01 | 0.01 to 0.1 |
| O=C(NCCC1CCN(Cc2ccccc2)CC1)C1CCN(c2ccc(OC(F)(F)F)c(F)c2)CC1 [10-44, N-[2-(1-benzylpiperidin-4-yl)ethyl]-1-[3-fluoro-4-(trifluoromethoxy)phenyl]piperidine-4-carboxamide] | 0.1 to 1 | – | – | – | – |
| C[C@@H]1CN(c2nccc(C#N)n2)C[C@H](C)N1C(=O)NCCC1CCN(Cc2ccccc2)CC1 [4-14, (2S,6R)-N-[2-(1-benzylpiperidin-4-yl)ethyl]-4-(4-cyanopyrimidin-2-yl)-2,6-dimethylpiperazine-1-carboxamide] | 0.1 to 1 | > 1 | > 1 | < 0.01 | – |
| C[C@@H]1CN(c2ncc(C#N)c(N)n2)C[C@H](C)N1C(=O)NCCC1CCN(Cc2ccccc2)CC1 [5-14, (2S,6R)-4-(4-amino-5-cyanopyrimidin-2-yl)-N-[2-(1-benzylpiperidin-4-yl)ethyl]-2,6-dimethylpiperazine-1-carboxamide] | 0.1 to 1 | – | 0.1 to 1 | < 0.01 | – |
| C[C@@H]1CN(c2ncc(C(F)(F)F)cn2)CCN1C(=O)NCCC1CCN(Cc2ccccc2)CC1 [21-14, (2R)-2-methyl-N-(2-{1-[α,α-^2H-benzyl]piperidin-4-yl}ethyl)-4-[5-(trifluoromethyl)pyrimidin-2-yl]piperazine-1-carboxamide] | – | – | – | – | 0.1 to 1 |
| CC1CN(c2ccc(OC(F)(F)F)cc2)CCC1C(=O)NCCC1CCN(Cc2ccccc2)CC1 (stereo not shown) [10-42, N-[2-(1-benzylpiperidin-4-yl)ethyl]-3-methyl-1-[4-(trifluoromethoxy)phenyl]piperidine-4-carboxamide] | 0.1 to 1 | – | 0.1 to 1 | – | – |
| O=C(NCCC1CCN(Cc2ccccc2)CC1)c1ccc(-c2ccc(OC(F)(F)F)cc2)cc1 [9-70, N-[2-(1-benzylpiperidin-4-yl)ethyl]-4-[4-(trifluoromethoxy)phenyl]benzamide] | 0.1 to 1 | – | 0.1 to 1 | – | – |
| C[C@@H]1CN(c2ncc(C(F)(F)F)c(N)n2)CCN1C(=O)NCCC1CCN(Cc2ccccc2)CC1 [21-17, (2R)-4-[4-amino-5-(trifluoromethyl)pyrimidin-2-yl]-2-methyl-N-(2-{1-[α,α-^2H-benzyl]piperidin-4-yl}ethyl)piperazine-1-carboxamide] | < 0.01 | 0.1 to 1 | – | < 0.01 | 0.01 to 0.1 |
| O=C(NCCC1CCN(Cc2ccccc2)CC1)C1CCN(c2cc(F)c(F)c(F)c2)CC1 [10-43, N-[2-(1-benzylpiperidin-4-yl)ethyl]-1-(3,4,5-trifluorophenyl)piperidine-4-carboxamide] | 0.1 to 1 | – | – | – | – |
| O=C(NCCC1(O)CCN(Cc2ccccc2)CC1)C1CCN(c2ccc(OC(F)(F)F)c(F)c2)CC1 [9-72, N-[2-(1-benzyl-4-hydroxypiperidin-4-yl)ethyl]-1-[3-fluoro-4-(trifluoromethoxy)phenyl]piperidine-4-carboxamide] | 0.1 to 1 | – | 0.1 to 1 | – | – |
| CC1(C(=O)NCCC2CCN(Cc3ccccc3)CC2)CCN(c2ccccc2OC(F)(F)F)CC1 [10-4, N-[2-(1-benzylpiperidin-4-yl)ethyl]-4-methyl-1-[2-(trifluoromethoxy)phenyl]piperidine-4-carboxamide] | – | – | – | 0.1 to 1 | – |
| CNC(=O)c1cnc(N2CCN(C(=O)NCCC3CCN(Cc4ccccc4)CC3)[C@H](C)C2)nc1 [27-10] | – | – | – | 0.1 to 1 | – |
| C[C@@H]1CN(c2ncc(C#N)cn2)C[C@H](C)N1C(=O)NCCC1CCN(Cc2ncccn2)CC1 [6-58, (2R,6S)-4-(5-cyanopyrimidin-2-yl)-2,6-dimethyl-N-{2-[1-(pyrimidin-2-ylmethyl)piperidin-4-yl]ethyl}piperazine-1-carboxamide] | – | – | – | 0.1 to 1 | – |
| COc1nc(N2CCN(C(=O)NCCC3CCN(Cc4ccccc4)CC3)[C@H](C)C2)ncc1F [4-27, (2R)-N-[2-(1-benzylpiperidin-4-yl)ethyl]-4-(5-fluoro-4-methoxypyrimidin-2-yl)-2-methylpiperazine-1-carboxamide] | – | – | – | 0.01 to 0.1 | – |
| C[C@@H]1CN(c2ccccc2F)CCN1C(=O)NCCC1CCN(Cc2ccccc2)CC1 [4-49, (2R)-N-[2-(1-benzylpiperidin-4-yl)ethyl]-4-(2-fluorophenyl)-2-methylpiperazine-1-carboxamide] | – | – | – | 0.1 to 1 | – |
| CCN(C)C(=O)c1cc(C)nc(N2CCN(C(=O)NCCC3CCN(Cc4ccccc4)CC3)[C@H](C)C2)n1 [27-18] | – | – | – | 0.1 to 1 | – |
| C[C@@H]1CN(c2cc(F)c(F)c(F)c2)CCN1C(=O)NCCC1CCN(Cc2cc(F)cc(F)c2)CC1 [6-23, (2R)-N-(2-{1-[(3,5-difluorophenyl)methyl]piperidin-4-yl}ethyl)-2-methyl-4-(3,4,5-trifluorophenyl)piperazine-1-carboxamide] | – | – | – | 0.1 to 1 | – |
| COc1cccc(N2CCC(C(=O)NCCC3CCN(Cc4ccccc4)CC3)CC2)c1 [10-53, N-[2-(1-benzylpiperidin-4-yl)ethyl]-1-(3-methoxyphenyl)piperidine-4-carboxamide] | – | – | – | 0.1 to 1 | – |
| COc1ccnc(N2CCN(C(=O)NCCC3CCN(Cc4ccccc4)CC3)[C@H](C)C2)n1 [4-2, (2R)-N-[2-(1-benzylpiperidin-4-yl)ethyl]-4-(4-methoxypyrimidin-2-yl)-2-methylpiperazine-1-carboxamide] | – | – | – | 0.1 to 1 | – |
| Cc1nc(CN2CCC(CCNC(=O)N3CCN(c4cc(F)c(F)c(F)c4)C[C@H]3C)CC2)cs1 [6-12, (2R)-2-methyl-N-(2-{1-[(2-methyl-1,3-thiazol-4-yl)methyl]piperidin-4-yl}ethyl)-4-(3,4,5-trifluorophenyl)piperazine-1-carboxamide] | – | – | – | 0.01 to 0.1 | – |
| C[C@@H]1CN(c2cnc3ccccc3c2)CCN1C(=O)NCCC1CCN(Cc2ccccc2)CC1 [4-40, (2R)-N-[2-(1-benzylpiperidin-4-yl)ethyl]-2-methyl-4-(quinolin-3-yl)piperazine-1-carboxamide] | – | – | – | 0.01 to 0.1 | – |
| N-{2-[1-(3-methylbutyl)piperidin-4-yl]ethyl}-1-[4-(trifluoromethoxy)phenyl]piperidine-4-carboxamide [11-19] | – | – | – | 0.1 to 1 | – |
| C[C@@H]1CN(c2ccnc(F)c2)CCN1C(=O)NCCC1CCN(Cc2ccccc2)CC1 [22-18] | – | – | – | 0.01 to 0.1 | – |
| C[C@@H]1CN(c2cc(F)c(F)c(F)c2)CCN1C(=O)NCCC1CCN(Cc2ccccc2F)CC1 [6-5, (2R)-N-(2-{1-[(2-fluorophenyl)methyl]piperidin-4-yl}ethyl)-2-methyl-4-(3,4,5-trifluorophenyl)piperazine-1-carboxamide] | – | – | – | 0.01 to 0.1 | – |
| CN(C(=O)NCCC1CCN(Cc2ccccc2)CC1)C1CCN(c2ccc(Br)cn2)C1 (stereo not shown) [8-9, 1-[2-(1-benzylpiperidin-4-yl)ethyl]-3-[1-(5-bromopyridin-2-yl)pyrrolidin-3-yl]-3-methylurea] | – | – | – | 0.01 to 0.1 | – |
| C[C@@H]1CN(c2cccc(OC(F)(F)F)c2)CCN1C(=O)NCCC1CCN(Cc2ccccc2)CC1 [4-16, (2R)-N-[2-(1-benzylpiperidin-4-yl)ethyl]-2-methyl-4-[3-(trifluoromethoxy)phenyl]piperazine-1-carboxamide] | 0.1 to 1 | > 1 | 0.1 to 1 | < 0.01 | – |
